Earlier results in US20220287355A1, “ORAL PRODUCTS WITH SELF-EMULSIFYING SYSTEM” (NICOVENTURES TRADING LIMITED, priority 2021, published 2022).

How the values were obtained:
[1] = not given; remark: listed apart in the source

**Q.** For `C=C(C)[C@@H]1CCC(C)=C[C@H]1c1c(O)cc(CCCCC)cc1O` [CBD, cannabidiol], which logP value is on record?
**A.** about 6.5

**Q.** And the “solubility in an aqueous environment (e.g., saliva)” value [1]?
**A.** insoluble
